# Experiments:
# [1] = set-up: method as in Laham & Sinclair, 1969; details: rats; ref Laham & Sinclair, 1969; cited from earlier work
# [2] = ref Ashby & Cook, 1974; cited from earlier work
# [3] = tested on: Salmonella strains TA 1535, TA 1538, TA 98 and TA 100; assay: Salmonella reverse-mutation assay of Ames; details: for response in the Ames assay (Fig. 1): strain TA 1538, presence of Aroclor 1254-induced rat liver S-9 mix
# [4] = tested on: BHK 21/C13 cells; assay: cell-transformation assay of Styles; details: presence of S-9 mix, 2 separate occasions (Fig. 2)
# [5] = chemical stability to heat, light and air (monitored by TLC and m.p.); type: physicochemical; details: for stability to heat and light: monitored by TLC and m.p.; for behaviour of the solid in air and light: noted at preparation
# [6] = tested on: BHK 21/C13 cells; assay: parallel cell-toxicity assay (% survivors) of the transformation assay; type: cell-based
compound,measurement,setting,value
Nc1ccc(-c2ccc([N+](=O)[O-])cc2)cc1 [4-nitro-4'-aminobiphenyl],bladder cancer induction,[1],induces bladder cancer
"Nc1ccc2c(c1)sc1ccccc12 [VII, 3-amino-dibenzothiophene]",carcinogenicity,[2],carcinogenicity
"Nc1ccc(-c2ccc(N)cc2)cc1 [XI, benzidine]",bladder cancer induction,[1],induces bladder cancer
same,response in the Ames assay,"[3]; 4 Salmonella strains, 3 separate occasions, presence and absence of Aroclor 1254-induced rat liver S-9 mix",positive on each occasion
same,response in the Ames assay (Fig. 1),[3],positive response
same,response in the cell-transformation assay,[4],positive
"CC(=O)Nc1ccc(-c2ccc(N)s2)cc1.Cl [XIII, 5-p-acetamidophenyl-2-thiophenamine hydrochloride]",stability to heat and light,[5],unstable to heat and light
same,behaviour of the solid in air and light,[5],sensitive to light and air
"Cl.Nc1ccc(-c2ccccc2)s1 [XIV, 5-phenyl-2-thiophenamine hydrochloride]",stability to heat and light,[5],unstable to heat and light
same,behaviour of the solid in air and light,[5],discolours quickly in air and light
"CC(=O)Nc1ccc(-c2ccc(NC(C)=O)s2)cc1 [XV, N-(5-p-acetamido-phenylthiophen-2-yl)acetamide]",response in the Ames assay (Fig. 1),[3],positive response
same,stability to heat and light,[5],stable
same,"cytotoxicity (toxicity curve, % survivors)",[6],toxicity curve similar to that of benzidine
"CC(=O)Nc1ccc(-c2ccccc2)s1 [XVI, N-(5-phenylthiophen-2-yl)-acetamide]",stability to heat and light,[5],stable
same,"cytotoxicity (toxicity curve, % survivors)",[6],toxicity curve similar to that of benzidine
